Test results reported in patent US20160137990A1, “CRYSTAL STRUCTURE OF BLOOD COAGULATION FACTOR XIIIA” (ZEDIRA GMBH, priority 2012, published 2016).
Structures can show the parent of a compound that is named as a salt. Starred links: 1 amine or outer side, 2 acyl side, 3 side chain; linkers in the order of their positions; H or OH if unused. Non-standard residues stand in square brackets, D forms with d. Residues, ends and D or L forms follow the SMILES beside them. ξ: configuration not given here. X1 = COC(=O)/C=C/CC[C@H](N[*:1])C(=O)[*:2]; Pro(4-oxo) = O=C1CN[C@H](C(=O)O)C1; Ile(3ξ) = CCC(C)[C@H](N)C(=O)O; Nle = CCCC[C@H](N)C(=O)O

Biological target: T1, Factor XIIIa (Homo sapiens, UniProt P00488)
T1 construct: purchased Zedira T027 or T007
T1 sequence (P00488 39-732 limits assumed): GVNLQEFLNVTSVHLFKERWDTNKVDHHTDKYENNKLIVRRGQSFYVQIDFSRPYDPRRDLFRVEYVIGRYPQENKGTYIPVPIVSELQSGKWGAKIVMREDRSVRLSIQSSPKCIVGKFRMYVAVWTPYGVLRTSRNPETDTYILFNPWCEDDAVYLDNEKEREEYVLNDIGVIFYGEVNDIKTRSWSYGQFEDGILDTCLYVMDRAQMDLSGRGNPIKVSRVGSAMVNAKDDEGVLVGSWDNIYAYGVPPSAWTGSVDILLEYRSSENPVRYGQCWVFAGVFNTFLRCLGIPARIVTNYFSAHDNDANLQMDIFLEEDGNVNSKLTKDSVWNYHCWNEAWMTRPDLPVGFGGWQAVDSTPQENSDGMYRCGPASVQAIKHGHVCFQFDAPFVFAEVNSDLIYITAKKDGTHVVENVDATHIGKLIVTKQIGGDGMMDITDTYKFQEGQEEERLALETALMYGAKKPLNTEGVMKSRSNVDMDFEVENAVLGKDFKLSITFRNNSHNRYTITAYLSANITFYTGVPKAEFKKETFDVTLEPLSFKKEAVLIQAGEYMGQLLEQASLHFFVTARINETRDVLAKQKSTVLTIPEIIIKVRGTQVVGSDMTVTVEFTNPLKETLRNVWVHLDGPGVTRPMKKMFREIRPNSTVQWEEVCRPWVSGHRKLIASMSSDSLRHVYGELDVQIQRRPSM
Assay: Fluorogenic assay kit F001 (Zedira), isopeptidase activity of FXIIIa
Format: biochemical
Conditions: FXIIIa after activation by thrombin; fluorescence ex 313 nm / em 418 nm
Experimental: Kinetic data of the inhibitor 1 (compound 4) and inhibitor 2 (compound 7) using the commercial fluorogenic assay kit F001 (Zedira) show an IC50 of about 0.11 and 0.08 μM respectively. The fluorogenic assay kit F001 (Zedira) is ready to use. Briefly, recombinant factor XIII (Zedira, product number T027) or human blood derived factor XIII (T007) is reconstituted in water. The enzymatic activity is measured in a suitable buffer (e.g. TRIS buffer pH 7.5 containing calcium chloride, sodium chloride, poly ethylene glycol (PEG), glycine methyl ester, clot inhibitor peptide GPRP-amide) after activation by thrombin. Factor XIIIa cleaves a dark quenching molecule from the side chain of the modified peptide incorporating glycine methyl ester (so called iso-peptidase activity). Subsequently, the fluorescence of an N-terminal coupled dye increases and can be monitored on-line (excitation wavelength 313 nm; emission wavelength 418 nm). The inhibitor of interest can be added after the activation of Factor XIII by thrombin is completed. The IC50 value represents the inhibitor concentration leading to a 50% inhibition of FXIIIa activity.

Row | IC50 [nM] | SMILES
1 | ~110 | CCCC[C@H](NC(=O)[C@H](CC/C=C/C(=O)OC)NC(=O)[C@@H](CC(=O)O)NC(C)=O)C(=O)N[C@@H](CCCC)C(=O)N[C@@H](CC(C)C)C(=O)N1CCC[C@H]1C(=O)N[C@@H](Cc1c[nH]c2ccccc12)C(=O)N1CCC[C@H]1C(=O)O [compound 4, (S)-1-((S)-2-((S)-1-((4R,7S,10S,13S,16S)-10,13-dibutyl-4-(carboxymethyl)-7-((E)-5-methoxy-5-oxopent-3-enyl)-18-methyl-2,5,8,11,14-pentaoxo-3,6,9,12,15-pentaazanonadecanecarbonyl)pyrrolidine-2-carboxamido)-3-(1H-indol-3-yl)propanoyl)pyrrolidine-2-carboxylic acid] (Ac-[dD][X1][Nle][Nle]LPWP-OH)
2 | ~80 | CCCC[C@H](NC(=O)[C@H](CC/C=C/C(=O)OC)NC(=O)[C@@H]1CC(=O)CN1)C(=O)N[C@H](C(=O)N[C@@H](CC(C)C)C(=O)N1CCC[C@H]1C(=O)N[C@@H](Cc1c[nH]c2ccccc12)C(=O)N1CCC[C@H]1C(=O)O)C(C)CC (stereo partly drawn) [compound 7, (S)-1-((S)-2-((S)-1-((8S,11S,14S,17S,E)-14-sec-butyl-11-butyl-17-isobutyl-3,9,12,15-tetraoxo-8-((S)-4-oxopyrrolidine-2-carboxamido)-2-oxa-10,13,16-triazaoctadec-4-ene)pyrrolidine-2-carboxamido)-3-(1H-indol-3-yl)propanoyl)pyrrolidine-2-carboxylic acid trifluoroacetate] (H-[Pro(4-oxo)][X1][Nle][Ile(3ξ)]LPWP-OH)
